Entries after “also recorded” stand apart in the source; their conditions may differ.
How the values were obtained:
[1] = tested on: fibroblasts derived from dermal stretch marks; test: Collagen and elastic fiber deposition in stretch-mark fibroblast cultures; format: cell-based, human; conditions: 200 μM, 24 hour-old cultures
Method: Cell Cultures-Fibroblasts initially grew out from the explants of these full thickness skin biopsies and were maintained. The primary cultures of fat-derived fibroblasts obtained from Thermogenesis (Rancho Cordova, Calif.) were also tested. In all described experiments, 2-4 passages of both kinds of fibroblasts were used. In experiments aimed at assessing ECM production, cells were initially plated at a concentration of 100,000 cells/dish. […] Immuno-staining-All cultures maintained in the presence and absence of indicated reagents were either fixed in cold 100% methanol at -20° C. (for detection of elastin) or in 4% paraformaldehyde at room temperature (for detection of collagen I). The multiple parallel cultures were then incubated with 10 μg/ml of polyclonal antibody to tropoelastin (Elastin Products, Owensville, Mich.), or polyclonal antibody to collagen type I (Chemicon, Temecula, Calif.). Cultures were then incubated with the respective fluorescein-conjugated goat anti-rabbit, goat anti-mouse, or rabbit anti-goat secondary antibodies. Nuclei were counterstained with propidium iodide (Sigma, Sigma, St. Louis, Mo.). All of the cultures were then examined with a Nikon Eclipse […] microscope attached to a cooled CCD camera (QImaging, Retiga EX) and analyzed by the computer-generated morphometric analysis system (Image-Pro Plus software, Media Cybernetics, Silver Springs, Md.) as previously described. Quantitative Assays of Insoluble Elastin-Fibroblasts were grown to confluency in 35-mm culture dishes (100,000 cells/dish). Next, 2 μCi of [3H]-valine/ml (Amersham Biosciences Ltd. Oakville, Canada), were added to each dish along with or without the indicated treatments. At the end of each experiment, the levels of metabolically labeled NaOH-insoluble elastin present in individual cultures were assayed and normalized per their DNA content.

[2] = tested on: reactive oxygen species (ROS); test: Intracellular ROS with CM-H2DCFDA probe (fluorescence microscope, flow cytophotometry); format: cell-based, human
Method: Quantification of Intracellular free radicals-reactive oxygen species (ROS)—To assess the levels of ROS, quadruplicate cultures of normal skin fibroblasts were exposed to 10 μM of ROS-sensitive CM-H2DCFDA fluorescent probe (Molecular Probes, Eugene, Oreg.) for 30 minutes. This probe passively diffuses into the cell interior and only upon oxidation is a fluorescent product released that can be visualized under a fluorescent microscope or captured by flow cytophotometry when excited at 480 nm. Fibroblasts were then maintained for 30 minutes in the presence or absence of 400 μM probenecid, then incubated either for 2 or 24 hours with and without 100 μM AA or 100 μM SA. At the end of these periods the images were captured using a fluorescent microscope under identical parameters of contrast and brightness. The ROS production was also assessed by flow cytophotometry (λ excitation 480 nm; λ emission 520 nm), using FACSCalibur, Beckton Dickinson Instrument.

[3] = tested on: normal dermal fibroblasts; test: Collagen fiber deposition (immuno-staining of collagen type I, morphometry); format: cell-based, human
Method: (§1) Cell Cultures—Fibroblasts initially grew out from the explants of these full thickness skin biopsies and were maintained. The primary cultures of fat-derived fibroblasts obtained from Thermogenesis (Rancho Cordova, Calif.) were also tested. In all described experiments, 2-4 passages of both kinds of fibroblasts were used. In experiments aimed at assessing ECM production, cells were initially plated at a concentration of 100,000 cells/dish. Confluent cultures were then maintained either in serum-free medium (DMEM) or in medium supplemented with 5% FBS in the presence of different reagents that were added 1 hour before treatments with SA.
(§2) Immuno-staining—All cultures maintained in the presence and absence of indicated reagents were either fixed in cold 100% methanol at −20° C. (for detection of elastin) or in 4% paraformaldehyde at room temperature (for detection of collagen I). The multiple parallel cultures were then incubated with 10 μg/ml of polyclonal antibody to tropoelastin (Elastin Products, Owensville, Mich.), or polyclonal antibody to collagen type I (Chemicon, Temecula, Calif.). Cultures were then incubated with the respective fluorescein-conjugated goat anti-rabbit, goat anti-mouse, or rabbit anti-goat secondary antibodies. Nuclei were counterstained with propidium iodide (Sigma, Sigma, St. Louis, Mo.). All of the cultures were then examined with a Nikon Eclipse E1000 microscope attached to a cooled CCD camera (QImaging, Retiga EX) and analyzed by the computer-generated morphometric analysis system (Image-Pro Plus software, Media Cybernetics, Silver Springs, Md.) as previously described.

[4] = tested on: normal dermal fibroblasts; test: Elastic fiber deposition (immuno-staining morphometry, [3H]-valine insoluble elastin) in monolayer cultures; format: cell-based, human; conditions: for elastogenic effects of 100 μM SA after pre-treatment with the inhibitor (mRNA, tropoelastin, insoluble elastin, elastic fibers): inhibitor pre-incubation then 100 μM SA, probenecid 400 μM
Method: as §1, with “cells/dish.” for “cells/dish. Confluent cultures were then maintained either in serum-free medium (DMEM) or in medium supplemented with 5% FBS in the presence of different reagents that were added 1 hour before treatments with SA.”
as §2
Quantitative Assays of Insoluble Elastin—Fibroblasts were grown to confluency in 35-mm culture dishes (100,000 cells/dish). Next, 2 μCi of [3H]-valine/ml (Amersham Biosciences Ltd. Oakville, Canada), were added to each dish along with or without the indicated treatments. At the end of each experiment, the levels of metabolically labeled NaOH-insoluble elastin present in individual cultures were assayed and normalized per their DNA content.

explants of dermal scars = test: Organ culture of skin explants (histochemistry, insoluble elastin); format: cell-based, human; conditions: 1 mM DMOG alone
Method: Organ culture of skin explants—Fragments of normal skin, stretch-marked skin and dermal scars collected during plastic surgery procedures were cut into multiple 4 mm2 pieces and maintained for 7 days in DMEM medium containing 5% FBS, […] The parallel quadruplicate explants from each experimental group were additionally maintained in the presence 2 μCi of [3H]-valine/ml and then subjected to the assay of insoluble elastin. The parallel explants from each experimental groups were also evaluated after pentachrome Movat's staining which allows for clear marking of elastic fibers. In each experimental group, 50 sections derived from quadruplicate explants were analyzed.

IGF-1 receptor = biological target: T1, IGF-1 receptor (Homo sapiens, UniProt P08069); test: IGF-1R phosphorylation (immuno-precipitation, anti-phospho-tyrosine Western blot); format: cell-based; conditions: pretreated and maintained with inhibitor, 100 μM SA
T1 construct: immuno-precipitated with antibody to β subunit of IGF-1R and detected by Western blotting with anti-phospho-tyrosine antibody; endogenous in cells; host or cells: cultured dermal fibroblasts
T1 sequence (P08069 741-1367 limits assumed): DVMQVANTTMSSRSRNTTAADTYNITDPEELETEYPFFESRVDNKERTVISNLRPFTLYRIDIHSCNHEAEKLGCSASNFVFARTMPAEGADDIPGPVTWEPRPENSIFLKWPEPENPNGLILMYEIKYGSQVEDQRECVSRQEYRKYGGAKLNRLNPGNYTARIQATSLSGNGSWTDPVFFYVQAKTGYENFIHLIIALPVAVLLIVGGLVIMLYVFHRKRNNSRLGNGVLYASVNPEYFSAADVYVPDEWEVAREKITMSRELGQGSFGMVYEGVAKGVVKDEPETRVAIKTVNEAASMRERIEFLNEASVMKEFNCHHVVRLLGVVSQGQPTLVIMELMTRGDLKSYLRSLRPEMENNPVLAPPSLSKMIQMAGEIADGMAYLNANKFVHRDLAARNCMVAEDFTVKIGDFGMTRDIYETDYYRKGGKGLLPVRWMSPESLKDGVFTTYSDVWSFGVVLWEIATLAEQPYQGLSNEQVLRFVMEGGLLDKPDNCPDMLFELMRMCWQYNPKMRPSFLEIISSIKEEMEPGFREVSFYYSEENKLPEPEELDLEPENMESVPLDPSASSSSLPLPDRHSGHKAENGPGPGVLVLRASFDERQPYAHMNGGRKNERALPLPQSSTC
T1 sequence (P08069 31-736 partner limits assumed): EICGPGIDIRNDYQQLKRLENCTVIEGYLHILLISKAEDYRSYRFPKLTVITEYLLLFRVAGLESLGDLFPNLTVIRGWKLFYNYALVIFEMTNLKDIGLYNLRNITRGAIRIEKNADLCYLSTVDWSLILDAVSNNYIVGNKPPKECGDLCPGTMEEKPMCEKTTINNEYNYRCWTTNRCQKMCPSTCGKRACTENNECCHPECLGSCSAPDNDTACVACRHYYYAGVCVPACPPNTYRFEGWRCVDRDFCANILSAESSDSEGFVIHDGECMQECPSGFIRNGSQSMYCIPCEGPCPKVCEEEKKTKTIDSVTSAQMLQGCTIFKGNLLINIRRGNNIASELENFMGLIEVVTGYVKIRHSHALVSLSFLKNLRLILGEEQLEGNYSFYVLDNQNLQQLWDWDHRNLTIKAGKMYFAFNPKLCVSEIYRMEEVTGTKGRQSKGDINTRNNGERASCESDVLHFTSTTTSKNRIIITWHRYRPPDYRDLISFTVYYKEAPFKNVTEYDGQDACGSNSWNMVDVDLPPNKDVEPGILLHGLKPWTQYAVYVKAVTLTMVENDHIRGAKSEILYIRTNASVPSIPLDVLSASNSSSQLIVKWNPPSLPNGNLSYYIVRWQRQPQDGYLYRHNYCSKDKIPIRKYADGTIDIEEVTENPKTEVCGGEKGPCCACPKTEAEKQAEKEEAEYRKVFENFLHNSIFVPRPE
Method: At the end of each experiment cells were submerged in the lysis buffer containing a broad-range phosphatase inhibitor. The polyclonal antibodies recognizing either the β subunits of the IGF-IR or the β subunit of the insulin receptor were immobilized on separate sets of the IgG-bearing magnetic beads (Invitrogen Canada Inc, Burlington, ON) and then incubated for 1 hour with the aliquots of the cell lysates containing 400 μg of protein as described in the manufacturer protocol. The beads bearing the resulting immuno-precipitation products were re-suspended in sample buffer and the released proteins were resolved with SDS-PAGE and subjected to Western blotting with a monoclonal anti-p-Tyr (PY99) antibody from Santa Cruz Biotechnology Inc. (Santa Cruz, Calif.) and then with HRP-conjugated goat anti-mouse secondary antibody.

[5] = DMOG added along with 100 μM SA

## O=C1O[C@H]([C@@H](O)CO)C(O)=C1O [AA, L-ascorbic acid]
[1]
  production of elastic fibers / elastogenesis: selective inhibition of new elastogenesis
[2]; 100 μM, 2 hours
  levels of intracellular ROS: did not display any decrease in ROS contents
[3]; 100 μM, 24-hour-old cultures, 5% FBS
  deposition of immuno-detected collagen fibers: stimulated collagen deposition

## COc1ccc(CNc2nc(N(CCO)CCO)nc3c2ncn3C(C)C)cc1 [CVT313, reference compound]
[4]; 5% FBS
  elastogenic effects of 100 μM SA after pre-treatment with the inhibitor (mRNA, tropoelastin, insoluble elastin, elastic fibers): eliminated elastogenic effects of 100 μM SA

## COC(=O)CNC(=O)C(=O)OC [DMOG, reference compound]
[4]; [5]
  SA-enhanced production of elastic fibers: did not interfere with the enhanced production of elastic fibers; also recorded: does not diminish the elastogenic effect of SA
Explants of dermal scars
  elastic fibers in ECM: did not revealed any elastic fibers
[3]; [5]
  deposition of collagen fibers: inhibits the deposition of collagen fibers

## CC(C)(C)n1nc(-c2ccc(Cl)cc2)c2c(N)ncnc21 [PP2, reference compound]
[4]; 5% FBS
  elastogenic effects of 100 μM SA after pre-treatment with the inhibitor (mRNA, tropoelastin, insoluble elastin, elastic fibers): did not trigger elastogenic effects; also recorded: abolish all elastogenic effects
IGF-1 receptor
  SA-induced enhancement of IGF-1R phosphorylation in inhibitor-pretreated cultures: eliminated

## COc1cc([C@@H]2c3cc4c(cc3[C@H](O)[C@H]3COC(=O)[C@@H]23)OCO4)cc(OC)c1OC [PPP, reference compound]
IGF-1 receptor
  SA-induced enhancement of IGF-1R phosphorylation in inhibitor-pretreated cultures: eliminated

## CCCN(CCC)S(=O)(=O)c1ccc(C(=O)O)cc1 [probenecid, Probenecid, reference compound]
[4]; 100-400 μM probenecid alone, 24 hours, versus untreated control
  basic deposition of elastic fibers: did not demonstrate any decrease in their basic deposition of elastic fibers
[4]; 5% FBS
  elastogenic effects of 100 μM SA after pre-treatment with the inhibitor (mRNA, tropoelastin, insoluble elastin, elastic fibers): eliminated the elastogenetic effects of 100 μM SA; also recorded: averts the induction of elastogenic effects
[2]; probenecid pre-incubation, then 100 μM SA for 2 hours
  SA-induced decrease of ROS after probenecid pre-incubation: could not be observed

## IGF-1: human IGF-I from Sigma-Aldrich, elastogenic stimulator
[4]; 50 ng/ml exogenous IGF-1, 24-hour treatment, 5% FBS
  elastogenic effects: strong elastogenic effects

## TGF-[…]1: elastogenic stimulator (TGF-β1, Greek letter lost)
[4]; 1 ng/ml TGF-[…]1
  elastogenesis: increase in elastogenesis

From patent publication US20130184337A1, “SODIUM ASCORBATE STIMULATION OF ELASTOGENESIS” (THE HOSPITAL FOR SICK CHILDREN, priority 2012, published 2013)
